Data: PMC8458504, “Targeting the actin nucleation promoting factor WASp provides a therapeutic approach for hematopoietic malignancies” (Nature Communications, 2021)

Target: T1, YFP-WASp wt (Wiskott–Aldrich Syndrome protein) (Homo sapiens, UniProt P42768)
T1 construct: gene WAS; full-length wild type, YFP-tagged, transiently expressed in HEK 293T (endogenous WIP present); diluted whole-cell lysate, not purified
T1 sequence (P42768 2-502): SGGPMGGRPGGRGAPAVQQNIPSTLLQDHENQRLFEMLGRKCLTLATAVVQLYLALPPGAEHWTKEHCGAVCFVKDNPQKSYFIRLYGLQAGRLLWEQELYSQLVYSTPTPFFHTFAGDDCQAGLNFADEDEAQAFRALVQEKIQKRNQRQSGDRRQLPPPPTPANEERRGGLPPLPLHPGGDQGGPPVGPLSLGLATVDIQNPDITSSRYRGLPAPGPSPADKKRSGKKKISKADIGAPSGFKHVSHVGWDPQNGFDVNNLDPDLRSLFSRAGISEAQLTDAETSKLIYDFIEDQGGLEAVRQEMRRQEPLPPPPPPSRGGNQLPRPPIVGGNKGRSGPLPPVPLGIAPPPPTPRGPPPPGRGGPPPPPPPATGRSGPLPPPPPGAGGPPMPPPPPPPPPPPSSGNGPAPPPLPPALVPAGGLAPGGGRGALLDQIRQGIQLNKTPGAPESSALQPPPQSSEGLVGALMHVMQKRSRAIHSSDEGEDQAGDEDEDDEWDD
Assay: microscale thermophoresis in diluted HEK […] lysate
Type: binding

Kd: 0.0308 ± 0.0136 µM
SMILES: COc1ccc(CN2C(=O)N(CC(C)C)C3(CCN(C4Cc5ccccc5C4)CC3)C2=O)cc1 [SMC #13, 8-(2,3-dihydro-1H-inden-2-yl)-1-isobutyl-3-(4-methoxybenzyl)-1,3,8-triazaspiro[4.5]decane-2,4-dione]
